Test results as given in patent publication US10377757B2, “Crystal form of JAK inhibitor and preparation method thereof” (CRYSTAL PHARMATECH CO., LTD, priority 2015, dated 2019).
“Also recorded” adds a separate entry of the source.

Key:
JAK2 = JAK2 (Homo sapiens, UniProt O60674); details: kinase detection, selectivity over JAK3; cited from earlier work
[1] = Stability assessment: storage under stress conditions, XRPD after storage; format: physicochemical; details: for stability (overall conclusion in words): solid form stability on storage; for Form Change: XRPD
Method: The crystalline Form I of the present disclosure was stored under 5° C., 25° C./60% RH and 40° C./75% relative humidity for 90 days. XRPD patterns were collected after storage.
The crystalline Form II of the present disclosure was stored under 5° C. and 25° C./60% RH. XRPD patterns were collected after storage.
Phosphate Form A of the present disclosure was stored under 5° C., 25° C./60% RH and 40° C./75% RH for 90 days. XRPD patterns were collected after storage.
Two of 10 mg of phosphate Form C were respectively opened stored at 25° C./60% RH and 40° C./75% RH for 30 days. XRPD and purity of the sample were collected after storage.

[2] = Hygroscopicity assessment by dynamic vapor sorption (DVS); format: physicochemical; details: for weight gain under 80% Relative Humidity: DVS, 10 mg sample, 80% RH
Method: Hygroscopicity of 10 mg Form I of the present disclosure was tested using dynamic vapor sorption (DVS). 5.
(§1) About hygroscopicity characterization description and definition of hygroscopicity (Chinese Pharmacopoeia 2010 edition appendix XIXJ Drug hygroscopic test guidelines, test at 25° C.+/−1° C., 80% Relative Humidity) • deliquescent: sufficient water is absorbed to form a liquid; • very hygroscopic: increase in mass is equal to or greater than 15 percent; • hygroscopic: increase in mass is less than 15 percent and equal to or greater than 2 percent; • slightly hygroscopic: increase in mass is less than 2 percent and equal to or greater than 0.2 percent. • no or almost no hygroscopic: increase in mass is less than 0.2%.
Hygroscopicity of 10 mg of phosphate crystalline Form A and phosphate crystalline Form C of the present disclosure were tested using dynamic vapor sorption (DVS). The DVS plot of phosphate crystalline Form A is shown in FIG. 23, The DVS plot of phosphate crystalline Form C is shown in FIG. 24.
as §1, with “Pharmacopoeia” for “About hygroscopicity characterization description and definition of hygroscopicity (Chinese Pharmacopoeia”

[3] = stored at 25° C./60% RH for 30 days
[4] = stored at 25° C./60% RH for 90 days
[5] = stored at 40° C./75% RH for 90 days

Chain of JAK2 (O60674 whole entry): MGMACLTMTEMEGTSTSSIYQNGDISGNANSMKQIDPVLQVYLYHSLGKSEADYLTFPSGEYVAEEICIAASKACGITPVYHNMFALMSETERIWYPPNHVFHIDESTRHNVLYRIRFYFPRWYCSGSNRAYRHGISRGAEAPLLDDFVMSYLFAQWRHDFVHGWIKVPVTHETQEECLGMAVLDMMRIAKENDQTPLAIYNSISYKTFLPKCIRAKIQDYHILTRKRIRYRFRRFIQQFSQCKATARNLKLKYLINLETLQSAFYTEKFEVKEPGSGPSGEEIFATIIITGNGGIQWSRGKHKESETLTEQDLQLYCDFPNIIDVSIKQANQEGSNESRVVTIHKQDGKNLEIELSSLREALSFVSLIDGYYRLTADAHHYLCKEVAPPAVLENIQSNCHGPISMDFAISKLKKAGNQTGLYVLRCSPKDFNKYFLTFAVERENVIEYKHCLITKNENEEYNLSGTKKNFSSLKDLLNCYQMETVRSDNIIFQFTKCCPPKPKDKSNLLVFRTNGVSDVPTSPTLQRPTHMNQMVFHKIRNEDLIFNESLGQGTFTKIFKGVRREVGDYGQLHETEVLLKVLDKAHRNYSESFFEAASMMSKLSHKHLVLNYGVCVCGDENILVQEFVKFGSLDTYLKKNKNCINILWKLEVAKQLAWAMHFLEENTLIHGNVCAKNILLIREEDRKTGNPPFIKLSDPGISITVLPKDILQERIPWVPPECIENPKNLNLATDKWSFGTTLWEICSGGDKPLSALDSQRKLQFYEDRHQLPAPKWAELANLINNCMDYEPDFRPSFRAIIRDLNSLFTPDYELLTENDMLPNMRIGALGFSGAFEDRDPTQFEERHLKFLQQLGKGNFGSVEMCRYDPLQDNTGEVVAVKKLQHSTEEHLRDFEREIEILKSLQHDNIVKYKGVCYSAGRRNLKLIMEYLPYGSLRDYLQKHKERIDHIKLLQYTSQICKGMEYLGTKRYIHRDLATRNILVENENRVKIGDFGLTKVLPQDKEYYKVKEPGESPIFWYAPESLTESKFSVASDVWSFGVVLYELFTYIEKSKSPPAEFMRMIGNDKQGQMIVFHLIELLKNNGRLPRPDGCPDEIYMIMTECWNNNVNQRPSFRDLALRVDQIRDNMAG

SMILES	stability (overall conclusion in words) [1]	weight gain under 80% Relative Humidity [2] [%]	Form Change ([1]; stored at 5° C. for 90 days)	Form Change [1, 3]	Form Change [1, 4]	Form Change [1, 5]	also measured
CCS(=O)(=O)N1CC(CC#N)(n2cc(-c3ncnc4[nH]ccc34)cn2)C1 [Baricitinib]	–	–	–	–	–	–	inhibition strength for JAK2 relative to JAK3 (JAK2): 100 times
CCS(=O)(=O)N1CC(CC#N)(n2cc(-c3ncnc4[nH]ccc34)cn2)C1 [Form II]	good stability	–	remains unchanged; also recorded: Form II remain unchanged	remains unchanged; also recorded: Form II remain unchanged	–	–	–

Continued, in another order:

stability (overall conclusion in words) [1]	weight gain under 80% Relative Humidity [2] [%]	SMILES	Form Change ([1]; stored at 5° C. for 90 days)	Form Change [1, 3]	Form Change [1, 4]	Form Change [1, 5]	also measured
good stability	–	CCS(=O)(=O)N1CC(CC#N)(n2cc(-c3ncnc4[nH]ccc34)cn2)C1 [Form I]	remains unchanged; also recorded: Form I remain unchanged	–	remains unchanged; also recorded: Form I remain unchanged	remains unchanged; also recorded: Form I remain unchanged	hygroscopicity class ([2]; Chinese Pharmacopoeia 2010 definition, 25° C.+/-1° C., 80% Relative Humidity): slightly hygroscopic (slightly hygroscopic: increase in mass is less than 2 percent and equal to or greater than 0.2 percent); weight gain under 80% Relative Humidity ([2]; listed as Form I of the compound Formula (I)): 0.44%
–	2.85	CCS(=O)(=O)N1CC(CC#N)(n2cc(-c3ncnc4[nH]ccc34)cn2)C1 [phosphate Form C]	–	Form C remain	–	–	weight gain under 80% Relative Humidity ([2]; listed as phosphate Form C of the compound Formula (I)): 2.85%; Form Change ([1]; stored at 40° C./75% RH for 30 days): Form C remain
good stability	0.99	CCS(=O)(=O)N1CC(CC#N)(n2cc(-c3ncnc4[nH]ccc34)cn2)C1 [phosphate Form A]	remains unchanged	–	remains unchanged	remains unchanged	weight gain under 80% Relative Humidity ([2]; listed as phosphate Form A of the compound Formula (I)): 0.99%; Form Change ([1]; stored at 5° C. for 90 days, listed as Phosphate Crystalline Form A): Form A remain unchanged; Form Change ([1]; stored at 25° C./60% RH for 90 days, listed as Phosphate Crystalline Form A): Form A remain unchanged; Form Change ([1]; stored at 40° C./75% RH for 90 days, listed as Phosphate Crystalline Form A): Form A remain unchanged
